# Reference: article PMC10011554, “BET inhibitor trotabresib in heavily pretreated patients with solid tumors and diffuse large B-cell lymphomas” (Nature Communications, 2023)
# Experiment: Adverse events, DLTs, MTD and RP2D in phase I study CC-90010-ST-001 (NCI CTCAE v4.03)
# Type: in vivo
# Procedure: The primary endpoints of the study were the safety and tolerability of trotabresib, as well as the MTD and/or RP2D of trotabresib. Safety was assessed using the National Cancer Institute Common Terminology Criteria for Adverse Events v4.03[53].
# The decision to evaluate additional subjects within a dose cohort, a higher dose cohort, intermediate dose cohorts, smaller dose increments, alternate dosing schedules, or declare an MTD will also be determined by the SRC, based on their review of clinical and laboratory safety […]
# 7.2.4. Definition of a Subject Evaluable for DLT
# After the first dose is administered in any cohort during dose escalation, subjects in each cohort […]
# more than one subject per day will be enrolled in a given dose escalation cohort.
# A subject evaluable for DLT is defined as one that: […]
# without experiencing a DLT,
# Subjects non-evaluable for DLT will be replaced. Additional subjects within any dose cohort may be enrolled at the discretion of the SRC. Intra-subject dose escalation will not be allowed during the DLT assessment period.
# 7.2.5. Definition of Maximum Tolerated Dose (MTD) […]
# of MTD is described in Section 7.2.2.
# A variable dose cohort (eg, less frequent dosing) may be evaluated to accurately determine the MTD at the discretion of the SRC.
# 7.2.6. Definition of Dose-Limiting Toxicity (DLT) […]
# used as a guide for the grading of severity of adverse events. A DLT is defined as any of the following toxicities occurring within the DLT assessment unless the event can clearly be […]
# Do se-limiting toxicities are described below:
# • Hyperglycemia meeting any of the following criteria:
# − Grade 3 or greater fasting hyperglycemia (> 250 mg/dL) lasting > 4 days despite optimal medical treatment
# (1 picture or pasted object on this page, not shown here)
# − Hyperglycemia associated with diabetic ketoacidosis or nonketotic hyperosmolar coma regardless of glucose level
# − Hyperglycemia that necessitates dose reduction despite dose interruption and resolution to ≤ grade 1 hyperglycemia within two weeks as described in […]
# • Any Grade 4 non-hematologic toxicity of any duration
# • Any non-hematologic toxicity Grade ≥ 3 EXCEPT for:
# − Grade 3 diarrhea, nausea, or vomiting of ≤ 3 days duration (with optimal medical […]
# − Grade 3 rash of the acneiform, pustular or maculopapular type which resolves to […]
# level with resumption of study drug at the same dose (with optimal medical […]
# − Grade 3 fatigue which resolves to Grade ≤ 2 within 7 days of study drug […]
# the same dose (with optimal medical management).
# • Hematological toxicities as follows:
# − Grade 4 neutropenia lasting > 7 days
# − Grade 4 thrombocytopenia lasting > 7 days, Grade ≥ 3 thrombocytopenia with clinically significant bleeding
# • Any AE, Grade ≥ 2 not specified or exempt above, unless clearly determined to be unrelated to the drug, necessitating dose-level reduction during Cycle 1.
# Isolated laboratory changes without associated clinical signs or symptoms (eg, hypomagnesemia, hypermagnesemia, hypoalbuminemia, hypophosphatemia, lymphocyte count increased or decreased) may not be included in this definition. These findings will be discussed and reviewed […]
# 7.2.7. Criteria for Dose Escalation in the Next Cohort of Subjects
# During Part A, the dose escalation criteria are described in Section 7.2.2.
# 7.2.8. Definition of Stopping Criteria
# During Part A, the dose escalation stopping rules are in Section 7.2.2.
# 7.2.9. Permitted Study Drug Adjustments
# Dose reductions are permitted in any cycle, including Cycle 1.
# • Dose reductions that occur in Cycle 1 during dose escalation will constitute DLT as […]
# [1] = part C, cycles 1 and 2, fasted state (n = 39)
# [2] = part C, cycles 1 and 2, fed state (n = 35)
compound,measurement,setting,value
Cn1cc(-c2cc(S(C)(=O)=O)ccc2OCC2CC2)c2ccccc2c1=O [trotabresib],TRAE: Hypertension,"part B DLBCL, grade 4",0%
same,TRAE: Hyponatremia,"part B DLBCL, grade 4",0%
same,TRAE: Hypophosphatemia,"part B DLBCL, grade 4",0%
same,TRAE: Nausea,"part B DLBCL, grade 4",0%
same,TRAE: Neutropenia,"part B DLBCL, grade 4",13.04%
same,TRAE: Platelet count decreased,"part B DLBCL, grade 4",0%
same,TRAE: Stomatitis,"part B DLBCL, grade 4",0%
same,TRAE: Thrombocytopenia,"part B DLBCL, grade 4",60.87%
same,TRAE: Vomiting,"part B DLBCL, grade 4",0%
same,grade 3/4 TRAE anemia,part B R/R DLBCL (N = 23),26%
same,grade 3/4 TRAE neutropenia,part B R/R DLBCL (N = 23),26%
same,grade 3/4 TRAE thrombocytopenia,part B R/R DLBCL (N = 23),78%
same,patients who died due to TEAEs not considered related to study treatment,part B R/R DLBCL (N = 23),9%
same,patients with any-grade TRAEs,part B R/R DLBCL (N = 23),100%
same,patients with grade 3/4 TRAEs,part B R/R DLBCL (N = 23),91%
same,patients with serious TRAEs,part B R/R DLBCL (N = 23),30%
same,further grade 3 and 4 TRAEs reported in one patient each,part B R/R DLBCL population,"Grade 3 abdominal infection, blood bilirubin increased, pneumonia and grade 4 blood creatinine increased, febrile neutropenia, leukopenia, and lymphopenia"
same,"TEAE leading to death, not considered related",part C (N = 41),one
same,grade 3/4 TRAE thrombocytopenia,part C (N = 41),17%
same,patients with any-grade TRAEs,part C (N = 41),98%
same,patients with grade 3/4 TRAEs,part C (N = 41),59%
same,further grade 3 TRAEs reported in one patient each,part C population,"Grade 3 gamma-glutamyl transferase increased, hyperamylasemia, and syncope"
same,TRAE: ALT increased,"part C, any grade",21.95%
same,TRAE: Anemia,"part C, any grade",12.2%
same,TRAE: Any TRAE,"part C, any grade",97.56%
same,TRAE: Asthenia,"part C, any grade",41.46%
same,TRAE: Decreased appetite,"part C, any grade",34.15%
same,TRAE: Dehydration,"part C, any grade",0%
same,TRAE: Dermatitis acneiform,"part C, any grade",17.07%
same,TRAE: Diarrhoea,"part C, any grade",60.98%
same,TRAE: Dysgeusia,"part C, any grade",53.66%
same,TRAE: Fatigue,"part C, any grade",26.83%
same,TRAE: Hyperglycemia,"part C, any grade",19.51%
same,TRAE: Hypertension,"part C, any grade",4.88%
same,TRAE: Hyponatremia,"part C, any grade",2.44%
same,TRAE: Hypophosphatemia,"part C, any grade",4.88%
same,TRAE: Nausea,"part C, any grade",60.98%
same,TRAE: Neutropenia,"part C, any grade",12.2%
same,TRAE: Platelet count decreased,"part C, any grade",0%
same,TRAE: Stomatitis,"part C, any grade",56.1%
same,TRAE: Thrombocytopenia,"part C, any grade",63.41%
same,TRAE: Vomiting,"part C, any grade",43.9%
same,patients with any-grade TRAEs,[1],95%
same,patients with grade 3/4 TRAEs,[1],33%
same,patients with any-grade TRAEs,[2],91%
same,patients with grade 3/4 TRAEs,[2],20%
same,TRAE: ALT increased,"part C, grade 3",2.44%
same,TRAE: Anemia,"part C, grade 3",0%
same,TRAE: Any TRAE,"part C, grade 3",56.1%
same,TRAE: Asthenia,"part C, grade 3",7.32%
same,TRAE: Decreased appetite,"part C, grade 3",0%
same,TRAE: Dehydration,"part C, grade 3",0%
same,TRAE: Dermatitis acneiform,"part C, grade 3",0%
same,TRAE: Diarrhoea,"part C, grade 3",4.88%
same,TRAE: Dysgeusia,"part C, grade 3",0%
same,TRAE: Fatigue,"part C, grade 3",7.32%
same,TRAE: Hyperglycemia,"part C, grade 3",4.88%
same,TRAE: Hypertension,"part C, grade 3",2.44%
same,TRAE: Hyponatremia,"part C, grade 3",2.44%
same,TRAE: Hypophosphatemia,"part C, grade 3",4.88%
same,TRAE: Nausea,"part C, grade 3",4.88%
same,TRAE: Neutropenia,"part C, grade 3",4.88%
same,TRAE: Platelet count decreased,"part C, grade 3",0%
same,TRAE: Stomatitis,"part C, grade 3",4.88%
same,TRAE: Thrombocytopenia,"part C, grade 3",14.63%
same,TRAE: Vomiting,"part C, grade 3",2.44%
same,TRAE: ALT increased,"part C, grade 4",0%
same,TRAE: Anemia,"part C, grade 4",0%
same,TRAE: Any TRAE,"part C, grade 4",2.44%
same,TRAE: Asthenia,"part C, grade 4",0%
same,TRAE: Decreased appetite,"part C, grade 4",0%
same,TRAE: Dehydration,"part C, grade 4",0%
same,TRAE: Dermatitis acneiform,"part C, grade 4",0%
same,TRAE: Diarrhoea,"part C, grade 4",0%
same,TRAE: Dysgeusia,"part C, grade 4",0%
same,TRAE: Fatigue,"part C, grade 4",0%
same,TRAE: Hyperglycemia,"part C, grade 4",0%
same,TRAE: Hypertension,"part C, grade 4",0%
same,TRAE: Hyponatremia,"part C, grade 4",0%
same,TRAE: Hypophosphatemia,"part C, grade 4",0%
same,TRAE: Nausea,"part C, grade 4",0%
same,TRAE: Neutropenia,"part C, grade 4",0%
same,TRAE: Platelet count decreased,"part C, grade 4",0%
same,TRAE: Stomatitis,"part C, grade 4",0%
same,TRAE: Thrombocytopenia,"part C, grade 4",2.44%
same,TRAE: Vomiting,"part C, grade 4",0%
same,grade 5 TRAEs,whole study,No grade 5 TRAEs were reported
